Target: ATP-binding cassette sub-family C member 2 (Homo sapiens, UniProt Q92887)
Experiment: TP_TRANSPORTER: transepithelial transport (basal to apical) in MRP2-expressing MDCKII cells
Assay type: functional, cell-based
Conditions: dog, mdck-ii

ATP-binding cassette sub-family C member 2, sequence (Q92887 whole entry): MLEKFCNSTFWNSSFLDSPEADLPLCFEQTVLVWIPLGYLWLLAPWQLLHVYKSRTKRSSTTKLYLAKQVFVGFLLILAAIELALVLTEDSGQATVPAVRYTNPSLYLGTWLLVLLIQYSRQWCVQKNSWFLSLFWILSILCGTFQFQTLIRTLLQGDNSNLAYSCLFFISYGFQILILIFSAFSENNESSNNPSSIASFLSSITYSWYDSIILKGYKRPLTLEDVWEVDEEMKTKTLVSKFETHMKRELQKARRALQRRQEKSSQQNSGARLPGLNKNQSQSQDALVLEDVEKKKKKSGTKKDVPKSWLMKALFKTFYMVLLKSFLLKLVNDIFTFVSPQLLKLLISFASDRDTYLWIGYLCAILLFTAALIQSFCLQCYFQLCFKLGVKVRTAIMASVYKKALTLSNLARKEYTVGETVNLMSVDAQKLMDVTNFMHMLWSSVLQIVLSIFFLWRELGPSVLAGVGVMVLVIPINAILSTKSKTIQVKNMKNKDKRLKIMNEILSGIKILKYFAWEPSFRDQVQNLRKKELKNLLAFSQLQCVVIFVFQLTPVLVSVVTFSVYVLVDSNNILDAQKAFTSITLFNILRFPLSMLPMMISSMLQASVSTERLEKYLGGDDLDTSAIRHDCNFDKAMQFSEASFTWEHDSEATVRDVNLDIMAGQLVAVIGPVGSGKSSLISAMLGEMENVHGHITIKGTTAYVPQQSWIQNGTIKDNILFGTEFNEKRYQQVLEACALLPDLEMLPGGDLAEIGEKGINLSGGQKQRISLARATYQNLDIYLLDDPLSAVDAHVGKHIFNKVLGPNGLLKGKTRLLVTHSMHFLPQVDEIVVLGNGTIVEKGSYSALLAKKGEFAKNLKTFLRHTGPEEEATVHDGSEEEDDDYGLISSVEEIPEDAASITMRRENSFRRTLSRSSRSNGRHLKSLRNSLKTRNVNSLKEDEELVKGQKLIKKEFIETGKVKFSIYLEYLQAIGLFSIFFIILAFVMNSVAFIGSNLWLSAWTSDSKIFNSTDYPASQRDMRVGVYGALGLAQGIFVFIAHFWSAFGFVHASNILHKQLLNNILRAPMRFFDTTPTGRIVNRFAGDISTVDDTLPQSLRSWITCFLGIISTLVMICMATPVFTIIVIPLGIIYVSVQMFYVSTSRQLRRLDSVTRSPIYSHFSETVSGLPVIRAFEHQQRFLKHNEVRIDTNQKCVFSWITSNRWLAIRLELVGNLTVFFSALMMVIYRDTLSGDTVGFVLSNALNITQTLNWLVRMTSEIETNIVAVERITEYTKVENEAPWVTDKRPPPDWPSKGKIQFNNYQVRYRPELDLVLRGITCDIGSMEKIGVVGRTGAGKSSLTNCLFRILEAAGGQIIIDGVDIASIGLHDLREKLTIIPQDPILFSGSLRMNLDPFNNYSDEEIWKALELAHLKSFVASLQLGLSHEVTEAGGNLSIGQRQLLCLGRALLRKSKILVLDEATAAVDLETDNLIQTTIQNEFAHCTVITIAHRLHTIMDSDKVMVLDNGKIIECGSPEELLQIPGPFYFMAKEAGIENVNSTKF

Activity: substrate [+]
Structure (SMILES): CC(C)(C)NC(=O)[C@@H]1CN(Cc2cccnc2)CCN1C[C@@H](O)C[C@@H](Cc1ccccc1)C(=O)N[C@H]1c2ccccc2C[C@H]1O.O

From ChEMBL document CHEMBL2073796, “Multidrug resistance protein 2 (MRP2) transports HIV protease inhibitors, and transport can be enhanced by other drugs” (AIDS, 2002)
